Experimental data: patent US20230141887A1, “CRYSTAL FORM OF DIAZASPIROPYRAN COMPOUND” (MEDSHINE DISCOVERY INC., priority 2020, published 2023)

Assays:
FLT3(ITD, F691L) = molecular target: T1, FLT3(ITD, F691L) (Homo sapiens, UniProt P36888, F691L, form not given); assay type: binding
T1 construct: fused on or other part: DNA tag for the qPCR read-out (the KINOMEscan format)
T1 sequence (P36888 1-993 F691L): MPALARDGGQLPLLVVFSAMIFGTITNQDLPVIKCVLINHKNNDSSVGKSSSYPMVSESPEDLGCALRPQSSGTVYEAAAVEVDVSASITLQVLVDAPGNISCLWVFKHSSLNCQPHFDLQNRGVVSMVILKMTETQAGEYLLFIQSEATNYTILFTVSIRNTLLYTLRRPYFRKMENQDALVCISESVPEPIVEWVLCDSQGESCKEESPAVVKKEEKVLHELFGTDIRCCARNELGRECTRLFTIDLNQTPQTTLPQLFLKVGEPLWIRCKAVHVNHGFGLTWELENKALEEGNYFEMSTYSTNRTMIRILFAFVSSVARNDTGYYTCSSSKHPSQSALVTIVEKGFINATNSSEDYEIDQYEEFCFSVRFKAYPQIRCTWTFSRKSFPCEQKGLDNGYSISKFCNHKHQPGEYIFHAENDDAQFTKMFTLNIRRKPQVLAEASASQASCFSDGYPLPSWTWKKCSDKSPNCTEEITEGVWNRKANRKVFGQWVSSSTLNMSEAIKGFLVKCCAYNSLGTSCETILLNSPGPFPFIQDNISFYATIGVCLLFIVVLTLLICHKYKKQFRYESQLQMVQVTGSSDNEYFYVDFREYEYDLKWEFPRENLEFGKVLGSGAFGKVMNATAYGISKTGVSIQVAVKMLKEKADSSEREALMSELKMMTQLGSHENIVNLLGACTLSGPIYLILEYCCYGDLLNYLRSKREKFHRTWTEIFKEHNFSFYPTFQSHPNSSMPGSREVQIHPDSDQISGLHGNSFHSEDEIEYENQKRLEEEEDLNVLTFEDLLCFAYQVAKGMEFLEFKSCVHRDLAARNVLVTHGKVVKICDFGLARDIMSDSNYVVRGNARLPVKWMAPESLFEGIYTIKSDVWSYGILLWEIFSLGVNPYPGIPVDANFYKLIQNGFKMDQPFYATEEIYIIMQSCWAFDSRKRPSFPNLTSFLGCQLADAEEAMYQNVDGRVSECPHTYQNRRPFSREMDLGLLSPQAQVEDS
Procedure: (§1) The assay was carried out using KINOMEscan™ technology. The assay compounds were stored in 100% DMSO. The assay was carried out by means of 3-fold dilution and 11-point fitting. All compounds used for Kd determination were dispersed by ultrasound, then directly diluted and tested. All reactions were carried out in a 384-well polypropylene plate. Each portion has a final volume of 0.02 ml. The plate was incubated with shaking at room temperature for 1 hour, and then processed. The kinase concentration in the eluent was finally determined by qPCR method. Kd was obtained by fitting.

FLT3(D835H) = molecular target: T2, FLT3(D835H) (Homo sapiens, UniProt P36888, D835H); assay type: binding
T2 sequence (P36888 27-993 D835H): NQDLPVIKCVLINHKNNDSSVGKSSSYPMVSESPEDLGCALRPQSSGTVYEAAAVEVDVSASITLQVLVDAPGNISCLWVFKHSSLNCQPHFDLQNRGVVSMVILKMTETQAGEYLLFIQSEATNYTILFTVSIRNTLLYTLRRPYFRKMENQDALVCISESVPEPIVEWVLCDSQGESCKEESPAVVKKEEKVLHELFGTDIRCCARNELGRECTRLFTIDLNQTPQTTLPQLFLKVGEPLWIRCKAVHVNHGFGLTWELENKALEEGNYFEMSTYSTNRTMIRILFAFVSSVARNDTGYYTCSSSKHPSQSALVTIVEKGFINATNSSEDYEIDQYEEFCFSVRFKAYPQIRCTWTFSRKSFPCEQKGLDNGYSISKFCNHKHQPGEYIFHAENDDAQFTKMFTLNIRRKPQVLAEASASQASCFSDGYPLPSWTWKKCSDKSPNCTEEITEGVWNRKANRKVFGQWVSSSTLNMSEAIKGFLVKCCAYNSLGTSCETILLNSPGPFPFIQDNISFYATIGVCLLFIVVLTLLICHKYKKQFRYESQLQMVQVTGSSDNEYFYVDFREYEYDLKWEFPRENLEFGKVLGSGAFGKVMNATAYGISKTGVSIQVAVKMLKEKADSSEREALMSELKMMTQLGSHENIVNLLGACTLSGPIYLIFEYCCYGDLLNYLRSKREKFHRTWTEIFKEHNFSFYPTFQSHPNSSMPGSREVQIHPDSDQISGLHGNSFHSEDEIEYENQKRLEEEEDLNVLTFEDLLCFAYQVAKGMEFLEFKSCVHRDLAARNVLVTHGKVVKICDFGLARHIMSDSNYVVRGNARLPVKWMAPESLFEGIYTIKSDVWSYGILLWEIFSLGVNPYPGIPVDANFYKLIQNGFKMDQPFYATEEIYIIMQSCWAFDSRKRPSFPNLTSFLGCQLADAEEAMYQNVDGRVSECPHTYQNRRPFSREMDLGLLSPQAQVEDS
Procedure: as §1

For `CCc1nc(C(N)=O)c(Nc2ccc(N3CCC4(CCN(C)CC4)CC3)c(C)c2)nc1NC1CCOCC1.O=C(O)C(F)(F)F`, the Kd (FLT3(ITD, F691L); FLT3(ITD, F691L)) was 0.21 nM, the “activity higher than that of the known compound B” value (FLT3(ITD, F691L); FLT3 (ITD, F691L), ratio of Kd versus compound B) was 3.6 times and the Kd (FLT3(D835H)) was 2.3 nM.
